Laboratory results taken from patent US6890921B1, “Arylsubstituted piperazines useful in the treatment of benign prostatic hyperplasia” (Ortho-McNeil Pharmaceutical, Inc., priority 1997, dated 2005).

How the values were obtained:
[1] = molecular target: T1, α1a-AR (Homo sapiens, UniProt P35348); experiment: Radioligand ([125I]-HEAT) receptor binding assay, COS cell membranes expressing α1a-AR; details: [125I]-HEAT 50 pM
T1 construct: expressed in transfected cells; host or cells: COS cells (transient, DEAE-dextran), membranes
T1 sequence (P35348 1-466): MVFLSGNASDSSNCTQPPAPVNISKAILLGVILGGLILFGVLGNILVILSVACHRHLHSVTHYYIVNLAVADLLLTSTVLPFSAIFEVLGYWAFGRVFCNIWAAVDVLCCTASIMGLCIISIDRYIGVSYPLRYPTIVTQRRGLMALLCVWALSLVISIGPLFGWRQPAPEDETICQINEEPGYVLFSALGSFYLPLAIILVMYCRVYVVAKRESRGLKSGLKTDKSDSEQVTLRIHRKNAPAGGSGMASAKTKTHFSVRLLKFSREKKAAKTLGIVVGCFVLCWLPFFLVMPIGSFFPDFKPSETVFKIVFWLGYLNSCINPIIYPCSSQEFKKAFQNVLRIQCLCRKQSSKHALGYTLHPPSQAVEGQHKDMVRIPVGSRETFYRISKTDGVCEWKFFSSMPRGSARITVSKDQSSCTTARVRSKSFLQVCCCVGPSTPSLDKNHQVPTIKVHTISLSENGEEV
Description: (§1) The DNA sequences of the three cloned human α1-AR subtypes have been published. […] We used published DNA sequence information to design primers for use in RT-PCR amplification of each subtype to obtain cloned cDNAs. Human poly A+ RNA was obtained from commercially available sources and included hippocampus and prostate samples, sources which have been cited in the literature. For the primary screen a radio ligand binding assay was used which employed membrane preparations from cells expressing the individual cloned receptor cDNAs. Radiolabeled ligands with binding activity on all three subtypes (non-selective) are commercially available ([125I]-HEAT, [3H]-prazosin).
(§2) Each α1 receptor subtype was cloned from poly A+ RNA by the standard method of reverse transcription-polymerase chain reaction (RT-PCR). The following sources of polyA+ RNA were used for the cloning of the α1 receptor subtypes: α1a-AR, human hippocampus and prostate, α1b-AR, human hippocampus, α1d-AR, human hippocampus. The resulting cDNAs were cloned into the pcDNA3 mammalian expression vector (Invitrogen Corp., San Diego Calif.). Each DNA was sequenced for verification and to detect any possible mutations introduced during the amplification process. Any deviation in sequence from the published consensus for each receptor subtype was corrected by site-directed mutagenesis.
(§3) The three α1-AR subtypes (a, b, d) were transfected into COS cells using a standard DEAE-dextran procedure with a chloroquine shock. In this procedure, each tissue culture dish (100 mm) was inoculated with 3.5×10^6 cells and transfected with 10 μg of DNA. Approximately 72 hours post-transfection, the cells were harvested and COS membranes were prepared. Transfected COS cells from 25 plates (100 mm) were scraped and suspended in 15 mL of TE buffer (50 mM Tris-HCl, 5 mM EDTA, pH7.4). The suspension was disrupted with a homogenizer. It was then centrifuged at 1000×g for 10 minutes at 4° C. The supernatant was centrifuged at 34,500×g for 20 minutes at 4° C. The pellet was resuspended in 5 mL TNE buffer (50 mM Tris-HCl, 5 mM EDTA, 150 mM NaCl, pH7.4). The resulting membrane preparation was aliquoted and stored at −70° C. The protein concentration was determined following membrane solubilization with TritonX-100.
(§4) The ability of each compound to bind to each of the α1-AR subtypes was assessed in a receptor binding assay. [125I]-HEAT, a non-selective α1-AR ligand, was used as the radiolabeled ligand. Each well of a 96-well plate received: 140 μL TNE, 25 μL [125I]-HEAT diluted in TNE (50,000 cpm; final concentration 50 pM), 10 μL test compound diluted in DMSO (final concentration 1 pM-[…]), […] COS cell membrane preparation expressing one of the three α1-AR subtypes (0.05-0.2 mg membrane protein). The plate was incubated for 1 hour at room temperature and the reaction mixtures were filtered through a Packard GF/C Unifilter filter plate. The filter plate was dried for 1 hour in a vacuum oven. Scintillation fluid ([…]) was added to each well, and the filter plate was counted in a Packard Topcount scintillation counter. Data was analyzed using GraphPad Prism software.
(§5) Tables A & B list the IC50 values expressed in nanomolar concentration for select compounds of the invention in all receptor subtypes.

[2] = molecular target: T2, α1b-AR (Homo sapiens, UniProt P35368); experiment: Radioligand ([125I]-HEAT) receptor binding assay, COS cell membranes expressing α1b-AR; details: [125I]-HEAT 50 pM
T2 construct: expressed in transfected cells; host or cells: COS cells (transient, DEAE-dextran), membranes
T2 sequence (P35368 1-520): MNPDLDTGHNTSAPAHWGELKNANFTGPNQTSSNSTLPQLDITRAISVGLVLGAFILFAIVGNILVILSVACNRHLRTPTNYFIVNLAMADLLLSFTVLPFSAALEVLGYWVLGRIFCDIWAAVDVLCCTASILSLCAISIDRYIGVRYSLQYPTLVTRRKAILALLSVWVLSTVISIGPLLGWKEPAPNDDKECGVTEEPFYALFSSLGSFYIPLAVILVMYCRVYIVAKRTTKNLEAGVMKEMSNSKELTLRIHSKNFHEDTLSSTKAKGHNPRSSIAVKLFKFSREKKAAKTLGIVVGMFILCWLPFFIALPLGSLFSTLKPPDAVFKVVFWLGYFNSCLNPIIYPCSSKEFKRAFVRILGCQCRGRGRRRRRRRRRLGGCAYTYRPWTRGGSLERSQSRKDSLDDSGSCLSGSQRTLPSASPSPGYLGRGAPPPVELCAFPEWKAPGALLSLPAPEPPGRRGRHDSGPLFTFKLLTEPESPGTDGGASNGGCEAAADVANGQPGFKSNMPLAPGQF
Description: as §1, §2, §3, §4, §5

[3] = molecular target: T3, α1d-AR (Homo sapiens, UniProt P25100); experiment: Radioligand ([125I]-HEAT) receptor binding assay, COS cell membranes expressing α1d-AR; details: [125I]-HEAT 50 pM
T3 construct: expressed in transfected cells; host or cells: COS cells (transient, DEAE-dextran), membranes
T3 sequence (P25100 1-572): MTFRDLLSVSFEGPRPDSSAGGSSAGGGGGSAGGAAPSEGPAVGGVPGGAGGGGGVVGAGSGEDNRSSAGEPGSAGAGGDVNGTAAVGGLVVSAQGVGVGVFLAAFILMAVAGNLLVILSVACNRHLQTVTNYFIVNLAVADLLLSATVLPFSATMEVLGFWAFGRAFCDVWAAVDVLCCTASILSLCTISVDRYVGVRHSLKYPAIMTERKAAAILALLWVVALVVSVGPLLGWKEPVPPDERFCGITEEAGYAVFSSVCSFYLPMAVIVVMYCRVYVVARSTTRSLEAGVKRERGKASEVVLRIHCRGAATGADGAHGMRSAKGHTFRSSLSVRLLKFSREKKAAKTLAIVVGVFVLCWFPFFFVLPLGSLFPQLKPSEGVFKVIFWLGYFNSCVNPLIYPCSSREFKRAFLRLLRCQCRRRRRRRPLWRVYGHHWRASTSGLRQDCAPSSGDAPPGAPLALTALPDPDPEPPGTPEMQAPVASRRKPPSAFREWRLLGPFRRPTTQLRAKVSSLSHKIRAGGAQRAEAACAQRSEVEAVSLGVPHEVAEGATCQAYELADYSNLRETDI
Description: as §1, §2, §3, §4, §5

[4] = molecular target: T4, HEK 293s cells expressing human α1a-AR (Homo sapiens, UniProt P35348); experiment: Antagonism of norepinephrine-induced mobilization of cytosolic calcium (Fluo-3, FLIPR); type: cell-based; details: norepinephrine 10 uM, read-out: IC50 for inhibition of the mobilization of cytosolic calcium
T4 construct: expressed in transfected cells
T4 sequence (P35348 1-466): T1 sequence (P35348 1-466)
Description: Binding of an agonist to α1-ARs causes the activation of PLC through G-protein coupled mechanisms (Minneman and Esbenshade, 1994). PLC catalyzes the hydrolysis of phosphatidyl inositol 4,5-bisphosphate (PIP2) generating two second messenger molecules, inositol 1,4,5-triphosphate (IP3) and diacylglycerol (DAG) and ultimately resulting in mobilization of intracellular calcium stores.
Preparation of stable cell lines expressing each receptor subtype: The alpha 1 adrenergic receptor subtypes (a, b, d) in the pcDNA3 vector were transfected into HEK 293s (human embryonic kidney) cells to form stable receptor-expressing cell lines. Transfection was performed using DMRIE-C (GibcoBRL) cationic lipid reagent mixed with 2-3 ug of DNA and reduced serum OPTI-MEM 1 medium (GibcoBRL). Cells in 100 mm tissue culture plates were overlayed with the lipid-DNA complex and incubated at 37° C., 5% CO2 for 5-6 hours. Serum-containing growth medium was then added and cells were incubated for an additional 48 hours. […] Positive cultures were subsequently analyzed by the calcium mobilization assay.
HEK 293s cells expressing human α1a-AR were lifted with trypsin and washed once with HBSS. […] Afterward, the agonist was added and fluorescent signal was monitored for 2-3 minutes using FLIPR (Molecular Devices, USA).

[5] = test system: rat aorta tissue (α1b-AR and α1d-AR); experiment: Norepinephrine-induced contractile response of rat aorta tissue; details: rat aortic rings, 37° C., read-out: IC50 for inhibition of contractile response in aortic tissue
Description: (§6) The contractile responses of rat prostatic tissue and rat aorta tissues were examined in the presence and absence of antagonist compounds. As an indication of the selectivity of antagonism, test compound effects on vascular smooth muscle contractility (α1b-AR and α1d-AR) were compared to the effects on prostatic smooth muscle (α1a-AR). Strips of prostatic tissue and aortic rings were obtained from Long Evans derived male rats weighing 275 grams and sacrificed by cervical dislocation. The prostate tissue was placed under 1 gram tension in a 10 ml bath containing phosphate buffered saline pH 7.4 at 32° C. and isometric tension was measured with force transducers. The aortic tissue was placed under 2 grams tension in a 10 ml bath containing phosphate buffered saline pH 7.4 at 37° C. The ability of test compound to reduce the norepinephrine-induced contractile response by 50% (IC50) was determined.

[6] = test system: rat prostatic tissue (α1a-AR); experiment: Norepinephrine-induced contractile response of rat prostatic tissue; details: rat prostatic strips, 32° C., read-out: IC50 for inhibition of contractile response in prostate tissue
Description: as §6

| Structure (SMILES) | IC50 ([1]; Table A) | IC50 ([2]; Table A) | IC50 ([3]; Table A) | IC50 [4] | IC50 [5] | IC50 [6] | IC50 ([1]; Table B) | IC50 ([2]; Table B) | IC50 ([3]; Table B) |
| --- | --- | --- | --- | --- | --- | --- | --- | --- | --- |
| CCOC(=O)C1CCC(=O)N1CC(=O)NCCN1CCN(c2ccccc2OC(C)C)CC1 (stereo not drawn) [compound 10] | 20 nM | 26300 nM | 260 nM |  |  |  |  |  |  |
| CC(C)Oc1ccccc1N1CCN(CCNC(=O)CN2CCCCCC2=O)CC1 [compound 11] | 18 nM | 3540 nM | 505 nM |  |  |  |  |  |  |
| COc1ccccc1N1CCN(CCCNC(=O)CN2CCCCC2=O)CC1 [compound 12] | 98 nM | 109000 nM | 30500 nM |  |  |  |  |  |  |
| CC(C)Oc1ccccc1N1CCN(CCNC(=O)CN2C(=O)c3ccccc3C2=O)CC1 [compound 13] |  |  |  |  |  |  | 104 nM | 1620 nM | 11 nM |

The next lines start with the values.

| IC50 ([1]; Table A) | IC50 ([2]; Table A) | IC50 ([3]; Table A) | IC50 [4] | IC50 [5] | IC50 [6] | IC50 ([1]; Table B) | IC50 ([2]; Table B) | IC50 ([3]; Table B) | Structure (SMILES) |
| --- | --- | --- | --- | --- | --- | --- | --- | --- | --- |
| 8.7 nM | 46100 nM | 372 nM | 99000 nM | 31900 nM | 1300 nM |  |  |  | CC(C)Oc1ccccc1N1CCN(CCNC(=O)CN2CCCCC2=O)CC1 [Cpd. 5] |
| 53 nM | 764000 nM | 650 nM |  |  |  |  |  |  | CC(C)Oc1ccccc1N1CCN(CCN(C)C(=O)CN2CCCCC2=O)CC1 [Cpd. 6] |
| 103 nM | 173000 nM | 372 nM |  |  |  |  |  |  | C=CCN(CCN1CCN(c2ccccc2OC(C)C)CC1)C(=O)CN1CCCCC1=O [compound 7] |
| 88 nM | 4230 nM | 348 nM |  |  |  |  |  |  | CC(C)Oc1ccccc1N1CCN(CCN(Cc2ccccc2)C(=O)CN2CCCCC2=O)CC1 [compound 9] |
